Reference: patent US20120035069A1, “PROGNOSIS OF BREAST CANCER PATIENTS BY MONITORING THE EXPRESSION OF TWO GENES” (priority 2009, published 2012)

What was measured:
MDA-MB-231 cells [1] = assay: Transwell migration assay; type: cell-based, human; conditions: control MDA-MB-231 cells; TGFβ1 5 ng/ml
Experimental: Transwell migration assay were performed in 24 well PET inserts (Falcon […] pore size) for migration assays. For MDA-MB-231, cells were plated in 10 cm dishes, transfected with siRNA and, after 8 hours, serum starved overnight. Then, 50000 or 100000 cells were plated in transwell inserts (at least 3 replicas for each sample) and either left untreated or treated with TGFβ1 (5 ng/ml). For H1299, cells is were plated in the transwell in 10% serum but then changed to 0.2% serum. For both cell lines, cells in the upper part of the transwells were removed with a cotton swab; migrated cells were fixed in PFA 4% and stained with Crystal Violet 0.5%. Filters were photographed and the total number of cells counted. Every experiment was repeated at least 3 times independently.

MDA-MB-231 cells [2] = assay: Matrigel invasion (evasion) assay; type: cell-based, human; conditions: SB431542 5 μM; control MDA-MB-231 cells embedded in a drop of Matrigel
Experimental: (C) Assay for invasive activity of MDA-MB-231 cells embedded in a drop of matrigel. Panels show pictures of the same field at different time points. Dotted is lines highlight the edges of the drop. Only control cells are able to evade from the Matrigel® (arrows). This process is dependent on TGFβ signaling as it is blocked by treatment with the TGFβR1 inhibitor SB431542 (5 μM). MDA shp53 cells are impaired in matrix degradation and evasion.
For matrigel invasion assay shown in FIG. 2C, MDA-MB-231 and derivative cell lines were resuspended in drops ([…]) of Matrigel Growth Factor Reduced (BD Biosciences), diluted 1:2 in DMEM/F12.

Compound | migration through transwell in response to TGFβ (MDA-MB-231 cells [1]) | evasion of cells from the Matrigel drop (TGFβ-dependent invasive activity) (MDA-MB-231 cells [2])
TGFβ: TGFβ provided from Peprotech, used to treat cells | potent promigratory response | 
NC(=O)c1ccc(-c2nc(-c3ccc4c(c3)OCO4)c(-c3ccccn3)[nH]2)cc1 [SB431542] |  | blocked
